Measurements from PubChem BioAssay (NCI).
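Values below derive from 48-hour exposures of cells grown in 96-well plates, with endpoints linearly interpolated between the two concentrations bracketing the appropriate inhibition level. Here, GI50 denotes the concentration required for 50% inhibition of growth. At the TGI there is no net growth.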

How the values were obtained:
Test in all cases: DTP human tumour cell line panel, 48 h
OVCAR-4 ovarian = system: OVCAR-4 ovarian
SK-MEL-2 melanoma = system: SK-MEL-2 melanoma
HOP-62 NSCLC = system: HOP-62 NSCLC
OVCAR-5 ovarian = system: OVCAR-5 ovarian
CAKI-1 renal = system: CAKI-1 renal
SF-295 CNS = system: SF-295 CNS
NCI-H460 lung = system: NCI-H460 lung
SNB-19 CNS = system: SNB-19 CNS
EKVX NSCLC = system: EKVX NSCLC
KM12 colon = system: KM12 colon
TK-10 renal = system: TK-10 renal
U251 CNS = system: U251 CNS
M14 melanoma = system: M14 melanoma
UACC-257 melanoma = system: UACC-257 melanoma
PC-3 prostate = system: PC-3 prostate
SK-MEL-28 melanoma = system: SK-MEL-28 melanoma
COLO 205 colon = system: COLO 205 colon
LOX IMVI melanoma = system: LOX IMVI melanoma
HT29 colon = system: HT29 colon
A549 NSCLC = system: A549 NSCLC
HCT-15 colon = system: HCT-15 colon
OVCAR-8 ovarian = system: OVCAR-8 ovarian
ACHN renal = system: ACHN renal
NCI/ADR-RES ovarian = system: NCI/ADR-RES ovarian
RXF 393 renal = system: RXF 393 renal
MDA-MB-435 = system: MDA-MB-435
OVCAR-3 ovarian = system: OVCAR-3 ovarian
HCC-2998 colon = system: HCC-2998 colon
NCI-H23 lung = system: NCI-H23 lung
SR leukemia = system: SR leukemia
BT-549 breast = system: BT-549 breast
SNB-75 CNS = system: SNB-75 CNS
CCRF-CEM leukemia = system: CCRF-CEM leukemia
SN12C renal = system: SN12C renal
NCI-H226 lung = system: NCI-H226 lung
UO-31 renal = system: UO-31 renal
SF-539 CNS = system: SF-539 CNS
UACC-62 melanoma = system: UACC-62 melanoma
MDA-MB-231 breast = system: MDA-MB-231 breast
HOP-92 NSCLC = system: HOP-92 NSCLC
A498 renal = system: A498 renal
T-47D breast = system: T-47D breast
K-562 leukemia = system: K-562 leukemia
DU-145 prostate = system: DU-145 prostate
MOLT-4 leukemia = system: MOLT-4 leukemia
SW-620 colon = system: SW-620 colon
HS 578T breast = system: HS 578T breast
MALME-3M melanoma = system: MALME-3M melanoma
RPMI-8226 leukemia = system: RPMI-8226 leukemia
IGROV1 ovarian = system: IGROV1 ovarian
SK-MEL-5 melanoma = system: SK-MEL-5 melanoma
HL-60(TB) leukemia = system: HL-60(TB) leukemia
SF-268 CNS = system: SF-268 CNS
NCI-H522 lung = system: NCI-H522 lung
786-0 renal = system: 786-0 renal
HCT-116 colon = system: HCT-116 colon
SK-OV-3 ovarian = system: SK-OV-3 ovarian
MCF7 breast = system: MCF7 breast

## CC1=C2[C@@H](CC1)[C@]1(C)O[C@@](C(C)C)(C[C@H]1OC(=O)CO)[C@H]2OC(=O)CCCc1ccccc1
OVCAR-4 ovarian
  GI50: 11.9 µM
  TGI: 29.1 µM
SK-MEL-2 melanoma
  GI50: 11.7 µM
  TGI: 27.2 µM
HOP-62 NSCLC
  GI50: 13.4 µM
  TGI: 26.8 µM
OVCAR-5 ovarian
  GI50: 15.7 µM
  TGI: 30 µM
CAKI-1 renal
  GI50: 4.24 µM
  TGI: 16.7 µM
SF-295 CNS
  GI50: 12.5 µM
  TGI: 24.9 µM
NCI-H460 lung
  GI50: 9.1 µM
  TGI: 22.9 µM
SNB-19 CNS
  GI50: 12.4 µM
  TGI: 24.9 µM
EKVX NSCLC
  GI50: 15 µM
  TGI: 30.8 µM
KM12 colon
  GI50: 5.97 µM
  TGI: 20.1 µM
TK-10 renal
  GI50: 18.6 µM
  TGI: 32.8 µM
U251 CNS
  GI50: 5.61 µM
  TGI: 20.9 µM
M14 melanoma
  GI50: 7.78 µM
  TGI: 21.8 µM
UACC-257 melanoma
  GI50: 13.1 µM
  TGI: 27.2 µM
PC-3 prostate
  GI50: 3.63 µM
  TGI: 16.1 µM
SK-MEL-28 melanoma
  GI50: 13.9 µM
  TGI: 26.8 µM
COLO 205 colon
  GI50: 6.52 µM
  TGI: 21.8 µM
LOX IMVI melanoma
  GI50: 5.88 µM
  TGI: 18.5 µM
HT29 colon
  GI50: 10.8 µM
  TGI: 26.1 µM
A549 NSCLC
  GI50: 6.96 µM
  TGI: 41.5 µM
HCT-15 colon
  GI50: 9.02 µM
  TGI: 22.2 µM
OVCAR-8 ovarian
  GI50: 4.58 µM
  TGI: 26.8 µM
ACHN renal
  GI50: 7.02 µM
  TGI: 19.3 µM
NCI/ADR-RES ovarian
  GI50: 3.87 µM
  TGI: 20 µM
RXF 393 renal
  GI50: 11.9 µM
  TGI: 25.6 µM
MDA-MB-435
  GI50: 13.1 µM
  TGI: 26.2 µM
OVCAR-3 ovarian
  GI50: 6.94 µM
  TGI: 22.5 µM
HCC-2998 colon
  GI50: 12 µM
  TGI: 24.6 µM
NCI-H23 lung
  GI50: 11.3 µM
  TGI: 27.6 µM
SR leukemia
  GI50: 11.3 µM
  TGI: 36.6 µM
BT-549 breast
  GI50: 4.44 µM
  TGI: 15.7 µM
SNB-75 CNS
  GI50: 2.08 µM
  TGI: 18.5 µM
CCRF-CEM leukemia
  GI50: 4.65 µM
  TGI: 34.7 µM
SN12C renal
  GI50: 4.52 µM
  TGI: 18 µM
NCI-H226 lung
  GI50: 6.04 µM
  TGI: 22.9 µM
UO-31 renal
  GI50: 3.36 µM
  TGI: 14.7 µM
SF-539 CNS
  GI50: 14.2 µM
  TGI: 27.5 µM
UACC-62 melanoma
  GI50: 3.42 µM
  TGI: 13.2 µM
MDA-MB-231 breast
  GI50: 12.9 µM
  TGI: 31.8 µM
HOP-92 NSCLC
  GI50: 3.86 µM
  TGI: 18 µM
A498 renal
  GI50: 6.4 µM
  TGI: 19.6 µM
T-47D breast
  GI50: 2.54 µM
  TGI: 12.3 µM
K-562 leukemia
  GI50: 5.88 µM
  TGI: 44.7 µM
DU-145 prostate
  GI50: 8.82 µM
  TGI: 20.9 µM
MOLT-4 leukemia
  GI50: 3.66 µM
  TGI: 15.2 µM
SW-620 colon
  GI50: 11 µM
  TGI: 25.4 µM
HS 578T breast
  GI50: 2.43 µM
  TGI: 9.23 µM
MALME-3M melanoma
  GI50: 6.52 µM
  TGI: 19.8 µM
RPMI-8226 leukemia
  GI50: 3.08 µM
  TGI: > 100 µM
IGROV1 ovarian
  GI50: 3.71 µM
  TGI: 14.1 µM
SK-MEL-5 melanoma
  GI50: 7.91 µM
  TGI: 20.3 µM
HL-60(TB) leukemia
  GI50: 2.21 µM
  TGI: 5.27 µM
SF-268 CNS
  GI50: 11.5 µM
  TGI: 32.6 µM
NCI-H522 lung
  GI50: 7.51 µM
  TGI: 24.6 µM
786-0 renal
  GI50: 13.1 µM
  TGI: 28.7 µM
HCT-116 colon
  GI50: 3.54 µM
  TGI: 13.9 µM
SK-OV-3 ovarian
  GI50: 16.6 µM
  TGI: 30.6 µM
MCF7 breast
  GI50: 13.2 µM
  TGI: 29.7 µM
